According to patent US5602101A, “Antithrombotic agents” (priority 1994, dated 1997):

Target: T1, Human plasmin (Homo sapiens, UniProt P00747)
T1 construct: Human plasmin is purchased from Boehringer Mannheim, Indianapolis, Ind; purchased Boehringer Mannheim, Indianapolis, Ind
Assay: Serine protease inhibition, plasmin (chromogenic substrate), Kass
Assay type: biochemical
Settings: substrate H-D-Val-Leu-Lys-p-nitroanilide
Protocol: (§1) The assay is carried out by mixing 50 μl buffer (0.03M Tris, 0.15M NaCl, pH 7.4), 25 μl of human thrombin solution (purified human thrombin Enzyme Research Laboratories, South Bend, Ind.) at 8 NIH units/ml and 25 μl of test compound in a solvent (50% aqueous methanol (v:v)). Then 150 μl of an aqueous solution of the chromogenic substrate (at 0.25 mg/ml) are added and the rates of hydrolysis of the substrate are measured by monitoring the reactions at 405 nm for the release of p-nitroaniline. Standard curves are constructed by plotting free thrombin concentration against hydrolysis rate. The hydrolysis rates observed with test compounds are then converted to "free thrombin" values in the respective assays by use of the standard curves. The bound thrombin (bound to test compound) is calculated by subtracting the amount of free thrombin observed in each assay from the known initial amount of thrombin used in the assay. The amount of free inhibitor in each assay is calculated by subtracting the number of moles of bound thrombin from the number of moles of added inhibitor (test compound).
(§2) Kass is calculated for a range of concentrations of test compounds and the mean value is reported in units of liter per mole.
(§3) By substantially following the procedures described above for human thrombin, and using other human blood coagulation system serine proteases, and using fibrinolytic system serine proteases, with the appropriate chromogenic substrate, identified below, selectivity of the compounds of the present invention with respect to the coagulation factor serine proteases and to the fibrinolytic serine proteases are evaluated as well as their substantial lack of interference with human plasma clot fibrinolysis.
(§4) Human factors X, Xa, IXa, XIa, and xIIa are purchased from Enzyme Research Laboratories, South Bend, Ind.; human urokinase from Leo Pharmaceuticals, Denmark; and recombinant activated Protein C (aPC) is prepared at Eli Lilly and Co. substantially according to U.S. Pat. No. 4,981,952 incorporated by reference herein in its entirety. Chromogenic substrates: N-Benzoyl-Ile-Glu-Gly-Arg-p-nitroanilide (for factor Xa); N-Cbz-D-Arg-Gly-Arg-p-nitroanilide (for factor IXa assay as the factor Xa substrate) pyroglutamyl-Pro-Arg-p-nitroanilide (for factor XIa and for aPC); H-D-Pro-Phe-Arg-p-nitroanilide (for factor XIIa); and pyroglutamyl-Gly-Arg-p-nitroanilide (for urokinase); are purchased from KabiVitrum, Stockholm, Sweden, or from Midwest Biotech, Fishers, Indiana. Bovine trypsin is purchased from Worthington Biochemicals, Freehold, N.J., and human plasma kallikrein from Kabi Vitrum, Stockholm, Sweden. N-Benzoyl-Phe-Val-Arg-p-nitroanilide, the substrate for human thrombin and for trypsin, is synthesized according to procedures described above for the compounds of the present invention, known methods of peptide coupling from commercially available reactants, or was purchased from Midwest Biotech, Fishers, Ind. Human plasmin is purchased from Boehringer Mannheim, Indianapolis, Ind.; nt-PA is purchased as single chain activity reference from American Diagnostics, Greenwich, Conn.; modified-t-PA6 (mt-PA6) is prepared at Eli Lilly and Company by procedure known in the art (See, Burck, et al., J. Biol. Chem., 265, […] (1990). Plasmin chromogenic substrate H-D-Val-Leu-Lys-p-nitroanilide and tissue plasminegen activator (t-PA) substrate H-D-Ile-Pro-Arg-p-nitroanilide are purchased from Kabi Vitrum, Stockholm, Sweden.

T1 sequence (P00747 581-810 limits assumed): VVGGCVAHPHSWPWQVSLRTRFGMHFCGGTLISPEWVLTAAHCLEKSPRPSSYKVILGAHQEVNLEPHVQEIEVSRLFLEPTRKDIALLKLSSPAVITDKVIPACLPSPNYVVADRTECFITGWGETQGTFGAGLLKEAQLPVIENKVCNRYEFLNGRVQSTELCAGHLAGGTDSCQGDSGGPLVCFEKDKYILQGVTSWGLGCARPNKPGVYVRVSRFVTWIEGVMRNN
T1 sequence (P00747 97-580 partner limits assumed): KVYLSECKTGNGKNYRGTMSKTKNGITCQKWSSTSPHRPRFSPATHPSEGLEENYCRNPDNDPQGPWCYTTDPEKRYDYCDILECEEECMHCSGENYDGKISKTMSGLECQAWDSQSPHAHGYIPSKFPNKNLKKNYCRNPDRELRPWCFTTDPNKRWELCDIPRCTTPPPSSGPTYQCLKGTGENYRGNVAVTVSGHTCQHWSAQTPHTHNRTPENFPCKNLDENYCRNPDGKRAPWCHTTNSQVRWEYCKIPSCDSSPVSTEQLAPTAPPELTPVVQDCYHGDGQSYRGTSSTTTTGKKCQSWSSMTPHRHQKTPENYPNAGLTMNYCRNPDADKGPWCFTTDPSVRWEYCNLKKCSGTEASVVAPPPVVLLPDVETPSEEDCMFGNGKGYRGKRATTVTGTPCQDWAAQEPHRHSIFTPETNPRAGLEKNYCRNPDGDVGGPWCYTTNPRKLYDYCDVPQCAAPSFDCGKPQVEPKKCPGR

Row | Compound | Enzyme Kass, Plasmin [L/mol × 10^6]
1 | Cl.NC(N)=NCCCC(C=O)NC(=O)C1CCCN1C(=O)C(Cc1ccccc1)NC(=O)Cc1cccnc1 [Example 4, N-(α-(3-pyridyl)-acetyl)-D-Phe-Pro-Arg-H-HCl] | 0.27
2 | Cl.Cn1c(C(=O)NC(CC2CCCCC2)C(=O)N2CCCC2C(=O)NC(C=O)CCCN=C(N)N)cc2ccccc21 [Example 5, NMI-D-Cha-Pro-Arg-H.HCl] | 25

System: Human Plasma
Assay: Anticoagulation in human plasma, prothrombin time (PT)
Assay type: biochemical
Settings: concentration required to double the PT
Protocol: (§5) Dog plasma and rat plasma are obtained from conscious mixed-breed hounds (either sex, Hazelton-LRE, Kalamazoo, Mich., U.S.A.) or from anesthetized male Sprague-Dawley rats (Harlan Sprague-Dawley, Inc., Indianapolis, Ind., U.S.A.) by venipuncture into 3.8 percent citrate. Fibrinogen is prepared from in-date ACD human blood as the fraction I-2 according to previous procedures and specifications. Smith, Biochem. Chem. […] Human fibrinogen is also purchased as 98 percent pure/plasmin free from American Diagnostics, Greenwich, Conn. Coagulation reagents ACTIN, Thromboplastin, and Human plasma are from Baxter Healthcare Corp., Dade Division, Miami, Fla. Bovine thrombin from Parke-Davis (Ann Arbor, Mich.) is used for coagulation assays in plasma. Coagulation assay procedures are as previously described. Smith, et al., Thrombosis Research, 5, 163-174 (1988). A CoAScreener coagulation instrument (American LABor, Inc.) is used for all coagulation assay measurements. The prothrombin time (PT) is measured by adding 0.05 ml saline and 0.05 ml Thromboplastin-C reagent to 0.05 ml test plasma. The activated partial thromboplastin time (APTT) is measured by incubation of 0.05 ml test plasma with 0.05 ml Actin reagent for 120 seconds followed by 0.05 ml CaCl2 (0.02M). […] The compounds of formula I are added to human or animal plasma over a wide range of concentrations to determine prolongation effects on the APTT, PT, and TT assays. Linear extrapolations are performed to estimate the concentrations required to double the clotting time for each assay.

Row | Compound | 2 × Clotting time, PT
3 | Cl.NC(N)=NCCCC(C=O)NC(=O)C1CCCN1C(=O)C(Cc1ccccc1)NC(=O)Cc1cccnc1 [Example 4, N-(α-(3-pyridyl)-acetyl)-D-Phe-Pro-Arg-H-HCl] | 3,400 ng/ML
4 | Cl.Cn1c(C(=O)NC(CC2CCCCC2)C(=O)N2CCCC2C(=O)NC(C=O)CCCN=C(N)N)cc2ccccc21 [Example 5, NMI-D-Cha-Pro-Arg-H.HCl] | 2,500 ng/ML

System: Human Plasma
Assay: Anticoagulation in human plasma, thrombin time (TT)
Assay type: biochemical
Settings: concentration required to double the thrombin time
Protocol: as §5

Row | Compound | 2 × Clotting time, TT [ng/mL]
5 | Cl.NC(N)=NCCCC(C=O)NC(=O)C1CCCN1C(=O)C(Cc1ccccc1)NC(=O)Cc1cccnc1 [Example 4, N-(α-(3-pyridyl)-acetyl)-D-Phe-Pro-Arg-H-HCl] | 150
6 | Cl.Cn1c(C(=O)NC(CC2CCCCC2)C(=O)N2CCCC2C(=O)NC(C=O)CCCN=C(N)N)cc2ccccc21 [Example 5, NMI-D-Cha-Pro-Arg-H.HCl] | 110

System: Human Plasma
Assay: Anticoagulation in human plasma, activated partial thromboplastin time (APTT)
Assay type: biochemical
Settings: concentration required to double the APTT
Protocol: as §5

Row | Compound | 2 × Clotting time, APTT
7 | Cl.NC(N)=NCCCC(C=O)NC(=O)C1CCCN1C(=O)C(Cc1ccccc1)NC(=O)Cc1cccnc1 [Example 4, N-(α-(3-pyridyl)-acetyl)-D-Phe-Pro-Arg-H-HCl] | 2,300 ng/ML
8 | Cl.Cn1c(C(=O)NC(CC2CCCCC2)C(=O)N2CCCC2C(=O)NC(C=O)CCCN=C(N)N)cc2ccccc21 [Example 5, NMI-D-Cha-Pro-Arg-H.HCl] | 1,000 ng/ML

Target: T2, tissue plasminogen activator (t-PA) (Homo sapiens, UniProt P00750)
T2 construct: purchased American Diagnostics, Greenwich, Conn
T2 sequence (P00750 36-562): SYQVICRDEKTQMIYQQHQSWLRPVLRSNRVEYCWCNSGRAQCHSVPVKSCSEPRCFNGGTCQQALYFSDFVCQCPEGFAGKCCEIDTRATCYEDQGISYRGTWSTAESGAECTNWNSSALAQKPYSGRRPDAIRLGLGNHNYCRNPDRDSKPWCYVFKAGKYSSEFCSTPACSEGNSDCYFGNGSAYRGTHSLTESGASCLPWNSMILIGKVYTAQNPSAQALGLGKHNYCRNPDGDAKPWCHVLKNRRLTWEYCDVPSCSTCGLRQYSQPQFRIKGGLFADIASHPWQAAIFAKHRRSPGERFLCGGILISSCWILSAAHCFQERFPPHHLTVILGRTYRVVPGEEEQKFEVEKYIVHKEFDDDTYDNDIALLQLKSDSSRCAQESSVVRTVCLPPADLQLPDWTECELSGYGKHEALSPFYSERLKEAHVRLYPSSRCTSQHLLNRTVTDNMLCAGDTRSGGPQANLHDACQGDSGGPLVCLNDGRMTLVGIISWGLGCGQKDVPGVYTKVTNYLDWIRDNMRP
Assay: Serine protease inhibition, t-PA (chromogenic substrate), Kass
Assay type: biochemical
Settings: substrate H-D-Ile-Pro-Arg-p-nitroanilide
Protocol: as §1, §2, §3, §4

Row | Compound | Enzyme Kass, t-Pa [L/mol × 10^6]
9 | Cl.NC(N)=NCCCC(C=O)NC(=O)C1CCCN1C(=O)C(Cc1ccccc1)NC(=O)Cc1cccnc1 [Example 4, N-(α-(3-pyridyl)-acetyl)-D-Phe-Pro-Arg-H-HCl] | 0.22
10 | Cl.Cn1c(C(=O)NC(CC2CCCCC2)C(=O)N2CCCC2C(=O)NC(C=O)CCCN=C(N)N)cc2ccccc21 [Example 5, NMI-D-Cha-Pro-Arg-H.HCl] | 1.1

Target: T3, Bovine trypsin (Bos taurus, UniProt P00760)
T3 construct: Bovine trypsin is purchased from Worthington Biochemicals, Freehold, N.J; purchased Worthington Biochemicals, Freehold, N.J
T3 sequence (P00760 24-246): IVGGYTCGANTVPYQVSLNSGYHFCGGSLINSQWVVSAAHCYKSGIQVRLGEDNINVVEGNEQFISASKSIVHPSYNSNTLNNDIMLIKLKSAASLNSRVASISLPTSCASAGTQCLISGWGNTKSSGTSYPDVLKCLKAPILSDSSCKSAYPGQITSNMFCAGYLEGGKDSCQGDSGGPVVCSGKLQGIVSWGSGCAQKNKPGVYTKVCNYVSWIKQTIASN
Assay: Serine protease inhibition, trypsin (chromogenic substrate), Kass
Assay type: biochemical
Settings: substrate N-Benzoyl-Phe-Val-Arg-p-nitroanilide
Protocol: as §1, §2, §3, §4

Row | Compound | Enzyme Kass, Trypsin [L/mol × 10^6]
11 | Cl.NC(N)=NCCCC(C=O)NC(=O)C1CCCN1C(=O)C(Cc1ccccc1)NC(=O)Cc1cccnc1 [Example 4, N-(α-(3-pyridyl)-acetyl)-D-Phe-Pro-Arg-H-HCl] | 5.2
12 | Cl.Cn1c(C(=O)NC(CC2CCCCC2)C(=O)N2CCCC2C(=O)NC(C=O)CCCN=C(N)N)cc2ccccc21 [Example 5, NMI-D-Cha-Pro-Arg-H.HCl] | 7.9

Target: T4, factor Xa (Homo sapiens, UniProt P00742)
T4 construct: Human factors X, Xa, IXa, XIa, and xIIa are purchased from Enzyme Research Laboratories; purchased Enzyme Research Laboratories, South Bend, Ind
T4 sequence (P00742 235-488 limits assumed): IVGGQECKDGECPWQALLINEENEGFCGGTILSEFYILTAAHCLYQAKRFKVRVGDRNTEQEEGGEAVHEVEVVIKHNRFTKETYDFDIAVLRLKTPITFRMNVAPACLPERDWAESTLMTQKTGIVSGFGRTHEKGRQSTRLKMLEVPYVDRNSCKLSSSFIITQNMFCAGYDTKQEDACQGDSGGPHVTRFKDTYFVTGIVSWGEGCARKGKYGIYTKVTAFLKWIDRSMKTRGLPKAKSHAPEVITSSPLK
T4 sequence (P00742 41-179 partner limits assumed): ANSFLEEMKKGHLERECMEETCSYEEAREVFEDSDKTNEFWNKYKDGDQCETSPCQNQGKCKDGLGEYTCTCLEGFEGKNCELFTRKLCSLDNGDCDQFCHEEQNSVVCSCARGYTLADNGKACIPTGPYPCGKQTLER
Assay: Serine protease inhibition, factor Xa (chromogenic substrate), Kass
Assay type: biochemical
Settings: substrate N-Benzoyl-Ile-Glu-Gly-Arg-p-nitroanilide
Protocol: as §1, §2, §3, §4

Row | Compound | Enzyme Kass, Xa [L/mol × 10^6]
13 | Cl.NC(N)=NCCCC(C=O)NC(=O)C1CCCN1C(=O)C(Cc1ccccc1)NC(=O)Cc1cccnc1 [Example 4, N-(α-(3-pyridyl)-acetyl)-D-Phe-Pro-Arg-H-HCl] | 0.067
14 | Cl.Cn1c(C(=O)NC(CC2CCCCC2)C(=O)N2CCCC2C(=O)NC(C=O)CCCN=C(N)N)cc2ccccc21 [Example 5, NMI-D-Cha-Pro-Arg-H.HCl] | 4.6

Target: T5, human thrombin (Homo sapiens, UniProt P00734)
T5 construct: purified human thrombin Enzyme Research Laboratories, South Bend, Ind; purchased Enzyme Research Laboratories, South Bend, Ind
Assay: Inhibition of amidase activity of thrombin (chromogenic substrate), Kass
Assay type: biochemical
Settings: substrate N-benzoyl-Phe-Val-Arg-p-nitroanilide, pH 7.4
Protocol: as §1
The Kass value is the hypothetical equilibrium constant for the reaction between thrombin and the test compound (I). [drawing 53]
as §2

Row | Compound | Enzyme Kass, Human Thrombin [L/mol × 10^6]
15 | Cl.NC(N)=NCCCC(C=O)NC(=O)C1CCCN1C(=O)C(Cc1ccccc1)NC(=O)Cc1cccnc1 [Example 4, N-(α-(3-pyridyl)-acetyl)-D-Phe-Pro-Arg-H-HCl] | 13
16 | Cl.Cn1c(C(=O)NC(CC2CCCCC2)C(=O)N2CCCC2C(=O)NC(C=O)CCCN=C(N)N)cc2ccccc21 [Example 5, NMI-D-Cha-Pro-Arg-H.HCl] | 320
